Measured values reported in EP2835640A1, “Method for predicting the skin sensitizing activity of a compound” (Academisch Ziekenhuis Leiden HODN Leids Universitair …, priority 2013, dated 2015).
Residues, ends and D or L forms follow the SMILES beside them. *: point of attachment. Cbz = O=C(OCc1ccccc1)*

Tests used:
NEMs = test: MTT cell viability assay, epidermal model; details: topical exposure
Protocol: The LEMs and the NEMs were constructed by seeding 200.000 cells on insert filters (12 wells plate, polyester membrane, Costar) in Dermalife K medium including lifefactors (Lifeline Cell Technology, Walkersville, MD) until full density was reached. […] Thereafter they were cultured in CNT medium (basal medium plus supplement kit, CellnTec, Bern, Switzerland). […] Medium was refreshed every 2 days. LEMs and NEMs were air-exposed for 12 days at 37 °C and 7.3% CO2 prior to analysis.
Twelve days air-exposed LEMs or NEMs were covered with a 11 mm filter paper disc (Finn Chamber, Phoenix, USA). Chemicals with different doses were applied onto the filters and incubated for 24 h and thereafter washed away with PBS. LEMs or NEMs were then incubated with thiazolyl blue tetrazolium bromide (MTT), (Sigma). MTT stock of 5 mg/ml PBS (filter sterilized) was diluted to a final concentration of 1 mg/ml in colourless DMEM medium. MTT medium was added to the cell cultures and incubated for 3 h at 37°C. Viable cells were then allowed to reduce the tetrazolium dye to its insoluble formazan, which has a purple colour. Therefore, after 3 hours, the MTT was removed and washed away with PBS. After drying, the formazan was dissolved in 2ml of isopropanol overnight at room temperature. Absorbance was measured at 570 nm using a plate reader (TECAN infinite F200) in order to calculate the cell viability.

Nrf2 dependent genes [1] = test: Quantitative PCR of gene expression, NEMs; type: cell-based, human; details: 4 h, mRNA
Protocol: Medium was refreshed every 2 days.
(§1) Total RNA was prepared using RNeasy mini kit (Qiagen) according to the manufacturer's protocol. RNA was quantified using a Nanodrop ND-1000 spectrophotometer. First- strand cDNA synthesis was derived from 1 ug of total RNA using the iscript cDNA synthesis kit (Biorad) according to the manufacturer's protocol. Primers were tested in normal KC cDNA. Stability of reference genes was analyzed with the GeNorm method (Vandesompele et al., 2002). Expression analysis was performed with the BioRad software (iQ5) and was based on the delta delta Ct method with the reference genes that were most stably expressed according to the GeNorm analysis.
(§2) Expression levels of the following genes were measured: HMOX-1 (Hemeoxygenase-1), GCLM (Glutamate-cysteine ligase modifier subunit), TXNRD1 (Thioredoxin reductase 1), OSGIN-1 (oxidative stress induced growth inhibitor 1), B2M (Beta-2 microglobulin), GUSB (Glucuronidase beta) and TBP (TATA binding protein). Quantitative real-time PCR was determined by using the following primer sets: • 5'-[…]-'3 (HMOX-1), • 5'-[…]-'3 GCLM), • 5'-[…]-'3 (TXNRD1), • 5'- TGCTGCAGAGGAAGCTCAC-'3 (OSGIN1), • 5'-[…]-'3 (B2M), • 5'-[…]-'3 (GUSB), • 5'-[…]-'3 (TBP).
(§3) Real-Time PCRs were performed in 10 µl reaction volumes using the MylQ system and SYBR Green PCR Master- mix (Biorad) according to the manufacturer's protocol. […]

Nrf2 dependent genes [2] = test: Quantitative PCR of gene expression, N/TERT monolayer cultures; type: cell-based, human; details: 4 h, mRNA
Protocol: as §1, §2
Real-Time PCRs were performed in 10 µl reaction volumes using the MylQ system and SYBR Green PCR Master- mix (Biorad) according to the manufacturer's protocol.
The PCR cycles were: 3 minutes at 95 °C to activate the polymerase, 40 cycles of 20 seconds at 95 °C and 40 seconds at 60 °C, followed by the generation of a melt curve.
All qPCR values were averaged relative to the three different reference genes: B2M, GUSB, TBP. For each data point, PCRs were performed in duplicate and values represent means ± standard deviation.

Nrf2 dependent genes [3] = test: Quantitative PCR of gene expression, monolayer primary keratinocytes; type: cell-based, human; details: 4 h, mRNA
Protocol: as §1, §2, §3

Monolayer keratinocytes = test: WST-1 cell viability assay, monolayers; type: cell-based, human; details: WST-1, 24 h of treatment
Protocol: Cell viability of monolayers was measured using WST-1 assay (Roche diagnostics, Mannheim, Germany). Briefly, cells were seeded in 96-well flat-bottom plates (Greiner Bio-One, Frickenhausen, Germany) in 100 µl of culture medium 24-48 h prior to chemical treatment. After 24 h of treatment with an irritant or sensitizer, 10 µl of WST-1 reagent was added and plates were further incubated up to 3 h at 37°C. […] Monolayer keratinocytes were exposed to DNCB (10 µM) and SDS (80µM) at 80% cell viability concentrations.

Nrf2 [4] = test: Nrf2 nuclear translocation by immunohistochemical analysis, NEMs; type: cell-based, human; details: NEMs 12 days air-exposed, 4 h treatment
Nrf2 [5] = test: Nuclear fractionation and Western blot, monolayer primary keratinocytes; type: cell-based, human
Excerpt: (§4) Nuclear fractions of monolayer cultures and reconstructed epidermis were isolate using a Nuclear extract kit (Active motif, Carlsbad, CA) according to the manufacturer's protocol. Nuclear fractions were subjected to Western blot analysis.
(§5) Monolayer cells were lysed in M-Per buffer (Thermo Scientific, Rockford, USA), reconstructed epidermis was cut in pieces and lysed in T-Per lysis buffer (Thermo Scientific, Rockford, USA) both supplemented with protease inhibitor cocktail EDTA-free and HALTTM phosphatase inhibitors (Thermo Scientific). Cell lysates were measured using the BCATM protein assay kit (Thermo Scientific). Equal amounts of proteins were separated by SDS-page. Proteins were transferred onto PVDF- transfer membranes (Thermo Scientific). […] After four times washing with PBST, proteins were detected by enhanced chemi-luminescence (Super signal West femto (Pierce Thermo Scientific, Rockford, USA) and visualized by exposure to X-ray film (Fujifilm Europe GmbH, Düsseldorf, Germany).
(§6) Next we investigated whether Nrf2 expression could be stabilized by inhibiting the proteasome that is responsible for a constitutive degradation of Nrf2. […] Although the Nrf2 translocation was clearly visible, we used a second approach enabling quantification of the amount of translocated Nrf2. […]

Nrf2 [6] = test: Nuclear fractionation and Western blot, N/TERT monolayer cultures; type: cell-based, human
Excerpt: as §4, §5, §6

[7] = skin sensitizing potency; cited from earlier work

Structure (SMILES): Nc1ccc(N)cc1 [PPD, p-Phenylenediamine]
- concentrations of 80 - 85% CV (NEMs): 35000 µM

Structure (SMILES): O=[N+]([O-])c1ccc(Cl)c([N+](=O)[O-])c1 [DNCB, 2,4-dinitrochlorobenzene]
- Expression of GLCM (Nrf2 dependent genes [1]): approx. 3,2 fold
- Expression of OSGIN-1 (Nrf2 dependent genes [1]): approx. 2 fold
- Expression of GCLM (Nrf2 dependent genes [2]): approx. 1,2 fold
- Expression of OSGIN-1 (Nrf2 dependent genes [2]): approx. 1,2 fold
- Expression of TXNRD-1 (Nrf2 dependent genes [2]): approx. 1,2 fold
- Expression of GCLM (Nrf2 dependent genes [3]): approx. 1,2 fold
- Expression of OSGIN-1 (Nrf2 dependent genes [3]): approx. 1,2 fold
- concentrations of 80 - 85% CV (NEMs): 500 µM
- 80% cell viability concentrations (Monolayer keratinocytes): 10 µM

Structure (SMILES): CCCCCCCCCCCCOS(=O)(=O)[O-].[Na+] [SDS, Sodium Dodecyl Sulfate]
- Nrf2 in the nuclei (Nrf2 [4]): Nrf2 was only translocated to the nucleus after DNCB treatment
- 80% cell viability concentrations (Monolayer keratinocytes): 80 µM

Structure (SMILES): CC(C)C[C@@H](C=O)NC(=O)[C@H](CC(C)C)NC(=O)[C@H](CC(C)C)NC(=O)OCc1ccccc1 [MG132] (Cbz-Leu-Leu-Leu-aldehyde)
- Nrf2 protein levels in nuclear lysates (Nrf2 [5]): elevated levels of Nrf2
- Nrf2 protein levels in nuclear lysates (Nrf2 [6]): elevated levels of Nrf2

Structure (SMILES): CC=Cc1ccc(O)c(OC)c1 [IsoEu, Isoeugenol]
- Potency category [7]: moderate
- concentrations of 80 - 85% CV (NEMs): 15000 µM
